Our source for the EC50 values is patent US9663473B2 (Actelion Pharmaceuticals Ltd, priority 2013, dated 2017).

The target in this experiment is T1, recombinant human ALX receptor (Homo sapiens, UniProt P25090).
T1 construct: expressed in transfected cells; host or cells: HEK293 (HEK293-hALXR-Gα16)
T1 sequence (P25090 1-351): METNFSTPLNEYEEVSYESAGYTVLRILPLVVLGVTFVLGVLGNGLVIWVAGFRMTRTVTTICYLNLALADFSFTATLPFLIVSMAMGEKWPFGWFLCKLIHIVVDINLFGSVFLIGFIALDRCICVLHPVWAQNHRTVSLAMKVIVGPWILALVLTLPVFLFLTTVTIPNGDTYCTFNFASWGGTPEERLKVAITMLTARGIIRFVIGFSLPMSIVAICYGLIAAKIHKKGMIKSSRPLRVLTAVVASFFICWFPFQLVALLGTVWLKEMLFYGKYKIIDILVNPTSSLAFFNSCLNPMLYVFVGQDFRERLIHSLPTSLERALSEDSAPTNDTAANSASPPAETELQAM
In words: Intracellular calcium measurements (FLIPR), ALX receptor agonistic activity. Type of experiment: cell-based. To be noted: HEK293-hALXR-Gα16 cells, Fluo-4 calcium signal, normalized to WKYMVm 10 nM. In outline:
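HEK293 cells co-expressing human ALX receptor and Gα16 were loaded with 1 μM Fluo-4 AM for 60 min at 37° C., then exposed to serially diluted compounds on FLIPR Tetra. Peak fluorescence above baseline (ex 488/em 540 nm) was normalized to 10 nM WKYMVm as high control.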

SMILES strings stand for the structures. Counter-ions that a name gives are not always drawn.

As for `COc1ccc(CC(NC(=O)NCc2nc3ccccc3s2)c2nc3ccccc3[nH]2)cc1` (stereo not drawn) [Example 38, 1-(1-(1H-Benzo[d]imidazol-2-yl)-2-(4-methoxyphenyl)ethyl)-3-(benzo[d]thiazol-2-ylmethyl)urea], the EC50 came to 0.198 µM.

For `COc1ccc(CC(NC(=O)NCc2cccc(OC)c2)c2nc3ccccc3[nH]2)cc1` (stereo not drawn) [Example 39, 1-(1-(1H-Benzo[d]imidazol-2-yl)-2-(4-methoxyphenyl)ethyl)-3-(3-methoxybenzyl)urea], the EC50 was determined as 0.516 µM.

As to `COc1ccc(CC(NC(=O)NCCc2ccccc2OC)c2nc3ccccc3[nH]2)cc1` (stereo not drawn) [Example 40, 1-(1-(1H-Benzo[d]imidazol-2-yl)-2-(4-methoxyphenyl)ethyl)-3-(2-methoxyphenethyl)urea], the EC50 was 0.062 µM.

As to `COc1ccc(CC(NC(=O)N[C@H](C)c2cccc(Cl)c2)c2nc3ccccc3[nH]2)cc1` (stereo partly drawn) [Example 41, 1-(1-(1H-Benzo[d]imidazol-2-yl)-2-(4-methoxyphenyl)ethyl)-3-((R)-1-(3-chlorophenyl)ethyl)urea], the 50% effective concentration (EC50) is 0.776 µM.

On to `COc1ccc(CC(NC(=O)NCCc2c(C)noc2C)c2nc3ccccc3[nH]2)cc1` (stereo not drawn) [Example 42, 1-(1-(1H-Benzo[d]imidazol-2-yl)-2-(4-methoxyphenyl)ethyl)-3-(2-(3,5-dimethylisoxazol-4-yl)ethyl)urea], for which the concentration for a half-maximal effect (EC50) is 0.814 µM.

Consider `COc1ccc(CC(NC(=O)NCc2ccc(Cl)cc2)c2nc3ccccc3[nH]2)cc1` (stereo not drawn) [Example 43, 1-(1-(1H-Benzo[d]imidazol-2-yl)-2-(4-methoxyphenyl)ethyl)-3-(4-chlorobenzyl)urea], for which the EC50 is 0.611 µM.

As to `COc1ccc(CC(NC(=O)NCc2ccccc2OC)c2nc3ccccc3[nH]2)cc1` (stereo not drawn) [Example 44], the EC50 worked out at 0.466 µM.

For `COc1ccc(CC(NC(=O)NCc2ccccc2Cl)c2nc3ccccc3[nH]2)cc1` (stereo not drawn) [Example 45, 1-(1-(1H-Benzo[d]imidazol-2-yl)-2-(4-methoxyphenyl)ethyl)-3-(2-chlorobenzyl)urea], the EC50 worked out at 0.76 µM.

Take `COc1ccc(CC(NC(=O)NCc2cccc(Cl)c2)c2nc3ccccc3[nH]2)cc1` (stereo not drawn) [Example 46, 1-(1-(1H-Benzo[d]imidazol-2-yl)-2-(4-methoxyphenyl)ethyl)-3-(3-chlorobenzyl)urea]: the EC50 was 0.601 µM.

With `COc1ccc(CC(NC(=O)NCCc2cccc(OC)c2)c2nc3ccccc3[nH]2)cc1` (stereo not drawn) [Example 47, 1-(1-(1H-Benzo[d]imidazol-2-yl)-2-(4-methoxyphenyl)ethyl)-3-(3-methoxyphenethyl)urea], the EC50 is 0.137 µM.

For `COc1ccc(CC(NC(=O)NCc2csc(C)n2)c2nc3ccccc3[nH]2)cc1` (stereo not drawn) [Example 48, 1-(1-(1H-Benzo[d]imidazol-2-yl)-2-(4-methoxyphenyl)ethyl)-3-((2-methylthiazol-4-yl)methyl)urea], the EC50 is 1.01 µM.

Consider `COc1ccc(CC(NC(=O)NC2CCN(C)CC2)c2nc3ccccc3[nH]2)cc1` (stereo not drawn) [Example 49, 1-(1-(1H-Benzo[d]imidazol-2-yl)-2-(4-methoxyphenyl)ethyl)-3-(1-methylpiperidin-4-yl)urea], for which the EC50 was found to be 0.085 µM.

For `CCOCc1ccccc1CNC(=O)NC(Cc1ccc(OC)cc1)c1nc2ccccc2[nH]1` (stereo not drawn) [Example 50, 1-(1-(1H-Benzo[d]imidazol-2-yl)-2-(4-methoxyphenyl)ethyl)-3-(2-(ethoxymethyl)benzyl)urea], the EC50 was 0.136 µM.

Regarding `COc1ccc(CC(NC(=O)NCc2cnc3ccccn23)c2nc3ccccc3[nH]2)cc1` (stereo not drawn) [Example 51, 1-(1-(1H-Benzo[d]imidazol-2-yl)-2-(4-methoxyphenyl)ethyl)-3-(imidazo[1,2-a]pyridin-3-ylmethyl)urea], the EC50 amounted to 0.99 µM.

For `COc1ccc(CC(NC(=O)NCC2CCCC2)c2nc3ccccc3[nH]2)cc1` (stereo not drawn) [Example 52, 1-(1-(1H-Benzo[d]imidazol-2-yl)-2-(4-methoxyphenyl)ethyl)-3-(cyclopentylmethyl)urea], the half-maximal effective concentration (EC50) was found to be 0.221 µM.

Turning to `COc1ccc(CCNC(=O)NC(Cc2ccc(OC)cc2)c2nc3ccccc3[nH]2)cc1` (stereo not drawn) [Example 53, 1-(1-(1H-Benzo[d]imidazol-2-yl)-2-(4-methoxyphenyl)ethyl)-3-(4-methoxyphenethyl)urea], the EC50 came out at 0.539 µM.

As for `COc1ccc(CCNC(=O)N[C@H](Cc2ccc(OC)cc2)c2nc3ccccc3[nH]2)cc1` [Example 54, (R)-1-(1-(1H-Benzo[d]imidazol-2-yl)-2-(4-methoxyphenyl)ethyl)-3-(4-methoxyphenethyl)urea], the EC50 came out at 0.987 µM.

On to `COc1ccc(C[C@@H](NC(=O)NCCc2ccc(F)cc2)c2nc3ccccc3[nH]2)cc1` [Example 55, (R)-1-(1-(1H-Benzo[d]imidazol-2-yl)-2-(4-methoxyphenyl)ethyl)-3-(4-fluorophenethyl)urea hydrochloride], for which the EC50 is 0.137 µM.

With `COc1ccc(C[C@@H](NC(=O)NCCc2ccccc2Cl)c2nc3ccccc3[nH]2)cc1` [Example 56, (R)-1-(1-(1H-Benzo[d]imidazol-2-yl)-2-(4-methoxyphenyl)ethyl)-3-(2-chlorophenethyl)urea hydrochloride], the EC50 worked out at 0.109 µM.

For the molecule `COc1ccc(C[C@@H](NC(=O)NCC2CCCO2)c2nc3ccccc3[nH]2)cc1` (stereo partly drawn) [Example 57, 1-((R)-1-(1H-Benzo[d]imidazol-2-yl)-2-(4-methoxyphenyl)ethyl)-3-((tetrahydrofuran-2-yl)methyl)urea hydrochloride], the EC50 worked out at 0.082 µM.

As for `COc1ccc(C[C@@H](NC(=O)NCc2ccccc2COC(C)C)c2nc3ccccc3[nH]2)cc1` [Example 58, (R)-1-(1-(1H-Benzo[d]imidazol-2-yl)-2-(4-methoxyphenyl)ethyl)-3-(2-(isopropoxymethyl)benzyl)urea], the EC50 worked out at 0.023 µM.

As for `COCCNC(=O)N[C@H](Cc1ccc(OC)cc1)c1nc2ccccc2[nH]1` [Example 59, (R)-1-(1-(1H-Benzo[d]imidazol-2-yl)-2-(4-methoxyphenyl)ethyl)-3-(2-methoxyethyl)urea hydrochloride], the EC50 was determined as 0.316 µM.

`CCOc1ccccc1CNC(=O)N[C@H](Cc1ccc(OC)cc1)c1nc2ccccc2[nH]1` [Example 60, (R)-1-(1-(1H-Benzo[d]imidazol-2-yl)-2-(4-methoxyphenyl)ethyl)-3-(2-ethoxybenzyl)urea hydrochloride]: the EC50 was found to be 0.161 µM.

As to `COc1ccc(C[C@@H](NC(=O)NCCc2cccc(Cl)c2)c2nc3ccccc3[nH]2)cc1` [Example 61, (R)-1-(1-(1H-Benzo[d]imidazol-2-yl)-2-(4-methoxyphenyl)ethyl)-3-(3-chlorophenethyl)urea hydrochloride], the EC50 amounted to 0.239 µM.

Regarding `COc1ccc(C[C@@H](NC(=O)NCc2ccccc2CN2CCOCC2)c2nc3ccccc3[nH]2)cc1` [Example 62, (R)-1-(1-(1H-Benzo[d]imidazol-2-yl)-2-(4-methoxyphenyl)ethyl)-3-(2-(morpholinomethyl)benzyl)urea dihydrochloride], the EC50 turned out to be 0.048 µM.

For `COc1ccc(C[C@@H](NC(=O)NCCc2ccccc2C)c2nc3ccccc3[nH]2)cc1` [Example 63, (R)-1-(1-(1H-Benzo[d]imidazol-2-yl)-2-(4-methoxyphenyl)ethyl)-3-(2-methylphenethyl)urea hydrochloride], the EC50 was 0.105 µM.

With `COc1ccc(C[C@@H](NC(=O)NCc2cccnc2OCC(F)(F)F)c2nc3ccccc3[nH]2)cc1` [Example 64, (R)-1-(1-(1H-Benzo[d]imidazol-2-yl)-2-(4-methoxyphenyl)ethyl)-3-((2-(2,2,2-trifluoroethoxy)pyridin-3-yl)methyl)urea hydrochloride], the EC50 amounted to 0.051 µM.

With `COc1ccc(C[C@@H](NC(=O)NCCC2CCCN2C)c2nc3ccccc3[nH]2)cc1` (stereo partly drawn) [Example 65, 1-((R)-1-(1H-Benzo[d]imidazol-2-yl)-2-(4-methoxyphenyl)ethyl)-3-(2-(1-methylpyrrolidin-2-yl)ethyl)urea dihydrochloride], the EC50 came to 0.29 µM.

Take `COc1ccc(C[C@@H](NC(=O)NCCc2ccc(C)cc2)c2nc3ccccc3[nH]2)cc1` [Example 66, (R)-1-(1-(1H-Benzo[d]imidazol-2-yl)-2-(4-methoxyphenyl)ethyl)-3-(4-methylphenethyl)urea hydrochloride]: the EC50 worked out at 0.438 µM.

As for `COc1ccc(C[C@@H](NC(=O)NCCc2ccccc2)c2nc3ccccc3[nH]2)cc1` [Example 67, (R)-1-(1-(1H-Benzo[d]imidazol-2-yl)-2-(4-methoxyphenyl)ethyl)-3-phenethylurea], the EC50 was 0.415 µM.

As for `COc1ccc(C[C@@H](NC(=O)NCCc2ccccc2F)c2nc3ccccc3[nH]2)cc1` [Example 68, (R)-1-(1-(1H-Benzo[d]imidazol-2-yl)-2-(4-methoxyphenyl)ethyl)-3-(2-fluorophenethyl)urea hydrochloride], the EC50 turned out to be 0.217 µM.

Consider `COc1ccc(C[C@@H](NC(=O)NCCC#N)c2nc3ccccc3[nH]2)cc1` [Example 69, (R)-1-(1-(1H-Benzo[d]imidazol-2-yl)-2-(4-methoxyphenyl)ethyl)-3-(2-cyanoethyl)urea], for which the EC50 was determined as 0.637 µM.

For `COCC(Cc1ccccc1)NC(=O)N[C@H](Cc1ccc(OC)cc1)c1nc2ccccc2[nH]1` (stereo partly drawn) [Example 70, 1-((R)-1-(1H-Benzo[d]imidazol-2-yl)-2-(4-methoxyphenyl)ethyl)-3-(1-methoxy-3-phenylpropan-2-yl)urea], the EC50 was determined as 0.017 µM.

For orientation: EC50 means the midpoint of the concentration-response curve.
